Data: ChEMBL document CHEMBL5500393, “Discovery and Optimization of Novel SaFabI Inhibitors as Specific Therapeutic Agents for MRSA Infection” (J Med Chem, 2024)
≈ marks a conversion by molar mass, not a printed value.

What was measured:
[1] = target: T1, Enoyl-[acyl-carrier-protein] reductase [NADPH] FabI (Staphylococcus aureus) (UniProt Q6GI75); assay: Inhibition of N-terminal his 6 tagged Staphylococcus aureus Fabi (1 to […] residues) expressed in Escherichia coli BL21 at 10 uM incubated for 30 mins in presence of NADPH by fluorescence based microplate reader analysis relative to control
T1 sequence (whole entry): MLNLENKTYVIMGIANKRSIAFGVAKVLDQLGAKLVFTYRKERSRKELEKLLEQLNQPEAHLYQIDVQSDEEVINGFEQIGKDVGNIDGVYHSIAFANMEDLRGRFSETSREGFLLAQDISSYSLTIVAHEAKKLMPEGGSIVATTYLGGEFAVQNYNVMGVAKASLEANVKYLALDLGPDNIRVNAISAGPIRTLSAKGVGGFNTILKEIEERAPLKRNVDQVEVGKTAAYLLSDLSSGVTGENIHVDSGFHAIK

[2] = target: T1, Enoyl-[acyl-carrier-protein] reductase [NADPH] FabI (Staphylococcus aureus); assay: Inhibition of N-terminal his 6 tagged Staphylococcus aureus Fabi (1 to […] residues) expressed in Escherichia coli BL21 at 1 uM incubated for 30 mins in presence of NADPH by fluorescence based microplate reader analysis relative to control
[3] = target: T2, Enoyl-[acyl-carrier-protein] reductase [NADPH] FabI (Staphylococcus aureus, UniProt Q6GI75); assay: Inhibition of N-terminal his 6 tagged Staphylococcus aureus Fabi (1 to […] residues) expressed in Escherichia coli BL21 incubated for 30 mins in presence of NADPH by fluorescence based microplate reader analysis
T2 sequence (Q6GI75 whole entry): T1 sequence (whole entry)

Staphylococcus aureus [4] = assay: Antimicrobial activity against […] Staphylococcus aureus ATCC33591 measured after 24 hrs by CLSI protocol based microdilution method; type: functional
Staphylococcus aureus [5] = assay: Antimicrobial activity against […] Staphylococcus aureus ATCC43300 measured after 24 hrs by CLSI protocol based microdilution method; type: functional
Staphylococcus aureus [6] = assay: Antimicrobial activity against […] Staphylococcus aureus USA300 measured after 24 hrs by CLSI protocol based microdilution method; type: functional
Staphylococcus aureus [7] = assay: Antimicrobial activity against […] Staphylococcus aureus NRS271 measured after 24 hrs by CLSI protocol based microdilution method; type: functional
Staphylococcus aureus [8] = assay: Antimicrobial activity against methicillin-susceptible Staphylococcus aureus ATCC29213 measured after 24 hrs by CLSI protocol based microdilution method; type: functional
Staphylococcus aureus [9] = assay: Antimicrobial activity against methicillin-susceptible Staphylococcus aureus ATCC25923 measured after 24 hrs by CLSI protocol based microdilution method; type: functional
Enterococcus faecium = assay: Antimicrobial activity against Enterococcus faecium ATCC19434 measured after 24 hrs by CLSI protocol based microdilution method; type: functional
Enterococcus faecalis = assay: Antimicrobial activity against Enterococcus faecalis ATCC29212 measured after 24 hrs by CLSI protocol based microdilution method; type: functional
Pseudomonas aeruginosa = assay: Antimicrobial activity against Pseudomonas aeruginosa PAO1 measured after 24 hrs by CLSI protocol based microdilution method; type: functional
Escherichia coli = assay: Antimicrobial activity against Escherichia coli ATCC25922 measured after 24 hrs by CLSI protocol based microdilution method; type: functional
Acinetobacter baumannii = assay: Antimicrobial activity against Acinetobacter baumannii ATCC19606 measured after 24 hrs by CLSI protocol based microdilution method; type: functional
Candida albicans = assay: Antimicrobial activity against Candida albicans SC5314 measured after 48 hrs by CLSI protocol based microdilution method; type: functional

| Compound | inhibition [1] | inhibition [2] | IC50 [3] | MIC (Staphylococcus aureus [4]) | MIC (Staphylococcus aureus [5]) | MIC (Staphylococcus aureus [6]) | MIC (Staphylococcus aureus [7]) | MIC (Staphylococcus aureus [8]) | MIC (Staphylococcus aureus [9]) | MIC (Enterococcus faecium) | MIC (Enterococcus faecalis) | MIC (Pseudomonas aeruginosa) | MIC (Escherichia coli) | MIC (Acinetobacter baumannii) | MIC (Candida albicans) |
| --- | --- | --- | --- | --- | --- | --- | --- | --- | --- | --- | --- | --- | --- | --- | --- |
| Cn1c(C2CC(=O)N(c3cccc(Br)c3O)C2)nc2ccccc21 (centres undefined) | 94.1% | 28.5% | 1880 nM | 16 µg/mL (≈ 41.4 µM) | 16 µg/mL (≈ 41.4 µM) | 16 µg/mL (≈ 41.4 µM) | 32 µg/mL (≈ 82.8 µM) | 16 µg/mL (≈ 41.4 µM) | 32 µg/mL (≈ 82.8 µM) | > 32 µg/mL | > 32 µg/mL | > 32 µg/mL | > 32 µg/mL | > 32 µg/mL | > 32 µg/mL |
| CCCn1c(C2CC(=O)N(c3cccc(Br)c3C)C2)nc2ccccc21 (centres undefined) | 99.5% | 57.6% | 745 nM | 8 µg/mL (≈ 19.4 µM) | 4 µg/mL (≈ 9.7 µM) | 8 µg/mL (≈ 19.4 µM) | 8 µg/mL (≈ 19.4 µM) | 4 µg/mL (≈ 9.7 µM) | 4 µg/mL (≈ 9.7 µM) | > 32 µg/mL | > 32 µg/mL | > 32 µg/mL | > 32 µg/mL | > 32 µg/mL | > 32 µg/mL |
| Cc1ccccc1N1CC(c2nc3ccccc3n2C)CC1=O (centres undefined) | 85.2% | 18.3% | 2410 nM | 16 µg/mL (≈ 52.4 µM) | 32 µg/mL (≈ 105 µM) | 32 µg/mL (≈ 105 µM) | 16 µg/mL (≈ 52.4 µM) | 16 µg/mL (≈ 52.4 µM) | 32 µg/mL (≈ 105 µM) | > 32 µg/mL | > 32 µg/mL | > 32 µg/mL | > 32 µg/mL | > 32 µg/mL | > 32 µg/mL |
| Cn1ccc2c(N3CC(c4nc5ccccc5n4C)CC3=O)cccc21 (centres undefined) | 62.1% | 9.8% | 8330 nM | > 32 µg/mL | > 32 µg/mL | > 32 µg/mL | > 32 µg/mL | > 32 µg/mL | > 32 µg/mL | > 32 µg/mL | > 32 µg/mL | > 32 µg/mL | > 32 µg/mL | > 32 µg/mL | > 32 µg/mL |
| COc1ccc(N2CC(c3nc4ccccc4n3C)CC2=O)cc1Br (centres undefined) | 72.3% | 9.4% | 3020 nM | > 32 µg/mL | > 32 µg/mL | > 32 µg/mL | > 32 µg/mL | > 32 µg/mL | > 32 µg/mL | > 32 µg/mL | > 32 µg/mL | > 32 µg/mL | > 32 µg/mL | > 32 µg/mL | > 32 µg/mL |
| Cn1c(C2CC(=O)N(c3cccc(F)c3Br)C2)nc2ccccc21 (centres undefined) | 83% | 23.5% | 2730 nM | 16 µg/mL (≈ 41.2 µM) | > 32 µg/mL | 32 µg/mL (≈ 82.4 µM) | > 32 µg/mL | 32 µg/mL (≈ 82.4 µM) | > 32 µg/mL | > 32 µg/mL | > 32 µg/mL | > 32 µg/mL | > 32 µg/mL | > 32 µg/mL | > 32 µg/mL |
| Cn1c(C2CC(=O)N(c3cccc(Cl)c3Br)C2)nc2ccccc21 (centres undefined) | 95.8% | 46% | 230 nM | 8 µg/mL (≈ 19.8 µM) | 16 µg/mL (≈ 39.5 µM) | 6 µg/mL (≈ 14.8 µM) | 16 µg/mL (≈ 39.5 µM) | 8 µg/mL (≈ 19.8 µM) | 16 µg/mL (≈ 39.5 µM) | > 32 µg/mL | > 32 µg/mL | > 32 µg/mL | > 32 µg/mL | > 32 µg/mL | > 32 µg/mL |
| Cc1c(Br)cccc1N1CC(c2nc3ccccc3n2C(C)C)CC1=O (centres undefined) | 87% | 21.1% | 1730 nM | 16 µg/mL (≈ 38.8 µM) | 16 µg/mL (≈ 38.8 µM) | 16 µg/mL (≈ 38.8 µM) | 32 µg/mL (≈ 77.6 µM) | 8 µg/mL (≈ 19.4 µM) | 16 µg/mL (≈ 38.8 µM) | > 32 µg/mL | > 32 µg/mL | > 32 µg/mL | > 32 µg/mL | > 32 µg/mL | > 32 µg/mL |
| Cn1c(C2CC(=O)N(c3cccc(Cl)c3F)C2)nc2ccccc21 (centres undefined) | 97.9% | 65.4% | 579 nM | 4 µg/mL (≈ 11.6 µM) | 4 µg/mL (≈ 11.6 µM) | 8 µg/mL (≈ 23.3 µM) | 8 µg/mL (≈ 23.3 µM) | 4 µg/mL (≈ 11.6 µM) | 4 µg/mL (≈ 11.6 µM) | > 32 µg/mL | > 32 µg/mL | > 32 µg/mL | > 32 µg/mL | > 32 µg/mL | > 32 µg/mL |
| Cn1c(C(=O)NCc2ccccc2)nc2ccccc21 | 4.7% | 6.2% |  | > 32 µg/mL | > 32 µg/mL | > 32 µg/mL | > 32 µg/mL | > 32 µg/mL | > 32 µg/mL | > 32 µg/mL | > 32 µg/mL | > 32 µg/mL | > 32 µg/mL | > 32 µg/mL | > 32 µg/mL |
| Cc1cccc(NC(=O)c2cccc(NC(=O)c3nc4ccccc4n3C)c2)c1C | 5% | 3.7% |  | > 32 µg/mL | > 32 µg/mL | > 32 µg/mL | > 32 µg/mL | > 32 µg/mL | > 32 µg/mL | > 32 µg/mL | > 32 µg/mL | > 32 µg/mL | > 32 µg/mL | > 32 µg/mL | > 32 µg/mL |
| Cn1c(C2CC(=O)N(c3ccc4ncsc4c3)C2)nc2ccccc21 (centres undefined) | 43.4% | 4.1% |  | > 32 µg/mL | > 32 µg/mL | > 32 µg/mL | > 32 µg/mL | > 32 µg/mL | > 32 µg/mL | > 32 µg/mL | > 32 µg/mL | > 32 µg/mL | > 32 µg/mL | > 32 µg/mL | > 32 µg/mL |
| Cn1c(C(=O)NCCC(=O)NCc2ccccc2)nc2ccccc21 | 8.6% | 5.7% |  | > 32 µg/mL | > 32 µg/mL | > 32 µg/mL | > 32 µg/mL | > 32 µg/mL | > 32 µg/mL | > 32 µg/mL | > 32 µg/mL | > 32 µg/mL | > 32 µg/mL | > 32 µg/mL | > 32 µg/mL |
| Cn1c(C2CC(=O)N(c3cccc(-c4ccccc4)c3)C2)nc2ccccc21 (centres undefined) | 10.1% | 3.5% |  | > 32 µg/mL | > 32 µg/mL | > 32 µg/mL | > 32 µg/mL | > 32 µg/mL | > 32 µg/mL | > 32 µg/mL | > 32 µg/mL | > 32 µg/mL | > 32 µg/mL | > 32 µg/mL | > 32 µg/mL |
| Cc1cccc(NC(=O)CCNC(=O)c2nc3ccccc3n2C)c1C | 6.6% | 4.8% |  | > 32 µg/mL | > 32 µg/mL | > 32 µg/mL | > 32 µg/mL | > 32 µg/mL | > 32 µg/mL | > 32 µg/mL | > 32 µg/mL | > 32 µg/mL | > 32 µg/mL | > 32 µg/mL | > 32 µg/mL |
| Cn1c(CCC(=O)NCCC(=O)NCc2ccccc2)nc2ccccc21 | 24.7% | 7.5% |  | > 32 µg/mL | > 32 µg/mL | > 32 µg/mL | > 32 µg/mL | > 32 µg/mL | > 32 µg/mL | > 32 µg/mL | > 32 µg/mL | > 32 µg/mL | > 32 µg/mL | > 32 µg/mL | > 32 µg/mL |
| Cc1cccc(NC(=O)CCc2nc3ccccc3n2C)c1C | 10% | 4.5% |  | > 32 µg/mL | > 32 µg/mL | > 32 µg/mL | > 32 µg/mL | > 32 µg/mL | > 32 µg/mL | > 32 µg/mL | > 32 µg/mL | > 32 µg/mL | > 32 µg/mL | > 32 µg/mL | > 32 µg/mL |
| Cc1cccc(C(=O)NCCNC(=O)CCc2nc3ccccc3n2C)c1C | 25.6% | 5.2% |  | > 32 µg/mL | > 32 µg/mL | > 32 µg/mL | > 32 µg/mL | > 32 µg/mL | > 32 µg/mL | > 32 µg/mL | > 32 µg/mL | > 32 µg/mL | > 32 µg/mL | > 32 µg/mL | > 32 µg/mL |
| Cc1cccc(N2CCC(c3nc4ccccc4n3C)CC2)c1C | 2% | 2.8% |  | > 32 µg/mL | > 32 µg/mL | > 32 µg/mL | > 32 µg/mL | > 32 µg/mL | > 32 µg/mL | > 32 µg/mL | > 32 µg/mL | > 32 µg/mL | > 32 µg/mL | > 32 µg/mL | > 32 µg/mL |
| Cc1cccc(N2CCC(c3nc4ccccc4n3C)C2)c1C (centres undefined) | 6.2% | 5.4% |  | > 32 µg/mL | > 32 µg/mL | > 32 µg/mL | > 32 µg/mL | > 32 µg/mL | > 32 µg/mL | > 32 µg/mL | > 32 µg/mL | > 32 µg/mL | > 32 µg/mL | > 32 µg/mL | > 32 µg/mL |
